Laboratory results taken from paper PMC11231610, “Fatty acid binding to the human transport proteins FABP3, FABP4, and FABP5 from a Ligand’s perspective” (The Journal of Biological Chemistry, 2024).
Where “and” joins values, the source holds several entries; their conditions need not be identical. Equal values may be shown once. Read-outs that look alike come from different tables or passages of the source.

Columns and labels:
Format in all cases: binding
FABP5 [1] = target: T1, FABP5 (Homo sapiens, UniProt Q01469); test: CW EPR spectra and spectral simulations of spin-probed fatty acids with FABP5; settings: for increase of intermediately bound component: FABPx/16-DSA 20/20 μM
T1 construct: purchased Sigma Aldrich
Experimental: (§1) For a more in-depth view of the binding mechanism, CW EPR spectra of 5/16-DSA with concentration series of the FABPs were measured and simulated. […] Equal concentrations of 20 μM of each spin probe (5- and 16-DSA) were mixed with FABP concentrations of 0 to 200 μM, increasing the resulting ligand/protein ratio in the samples stepwise from 1/0 to 1/10.
(§2) To analyze the spectra quantitatively, subsequent EPR spectral simulations were performed (Fig. 2, B and C). […] For a better understanding, a first interpretation of these components is given at this point. The rotational dynamics are thought to be indirectly proportional to the strength of intermolecular interactions between fatty acid and FABP. Therefore, they are indicative of the binding state of the fatty acids. Higher rotational correlation times signalize lower ligand dynamics and stronger interactions with the protein. […] This exchange broadening can only occur if radicals are located very close distance each other, colliding with each other, leading to partial overlap of spin-bearing orbitals.
(§3) The fractions (weights) Φx of the spectral components were extracted from the EPR simulations of the concentration series and were used to calculate the concentrations of all components with Eq (1). in Figure 3. This was performed for the intermediately and strongly bound components, as well as for their sum, called totally bound 5/16-DSA, to construct binding curves for all FABPs and spin probes. […] Different fit functions were applied to the curves for a better qualitative and quantitative analysis.

FABP4 = target: T2, FABP4 (Homo sapiens, UniProt P15090); test: CW EPR spectra and spectral simulations of spin-probed fatty acids with FABP4
T2 construct: purchased Sigma Aldrich
Experimental: as §1, §2, §3

FABP5 [2] = target: T1, FABP5; test: DHA displacement of 16-DSA from FABP5 by CW EPR; settings: FABP5/16-DSA/DHA 20/20/0, before DHA addition
Description: In a second addition during revision, we were curious about the question of whether our model ligands that bind with medium affinity to the FABP binding pocket will be displaced when we add a native ligand with higher affinity and whether we could detect this displacement with our CW EPR setup. The native ligand DHA was chosen for this displacement analysis since it is well-known to bind with high affinity to FABP5 ([26]). DHA was pre-dissolved in ethanol, diluted into buffer, and mixed with FABP5 and 16-DSA. […] Samples with FABP5/16-DSA/DHA ratios 20/20/0, 20/20/5, 20/20/10, 20/20/20, 20/20/50, and 20/20/100 were prepared with 5 min incubation time in between 16-DSA and DHA addition. […] We assume that the well-known high binding affinity of DHA refers to the state of strong binding within the pocket. […] Instead, a dynamic exchange of ligands seems to occur, as we consistently observe it with albumins from different species. However, this part opens the way to other future competitive binding assays via CW EPR spectroscopy, e.g., with pharmaceuticals that bind to FABPs.
CW EPR spectroscopic measurements were performed at X-band frequencies (∼9.4 GHz) with a benchtop spectrometer Magnettech MS-5000 (Freiberg Instruments GmbH, now Bruker Biospin). The samples were prepared in low-binding PCR tubes (250 μl). Protein and 5/16-DSA solutions were mixed with HEPES/NaCl buffer at pH 7.5, to obtain samples with a constant 5/16-DSA concentration of 20 μM and varying FABP concentrations of 200, 100, 50, 35, 25, 20, 15, 10 and 5 μM. After an incubation time of 20 min, the samples were transferred into glass capillaries, which were sealed with ‘Critoseal’. At first, solutions with 20 μM of 5/16-DSA were measured as references at 37 °C. The concentration series of FABP with 20 μM 5/16-DSA were measured at 37 °C, directly after preparation. Afterward, the sample capillaries were stored at 4 °C, and subsequent temperature-dependent measurements were performed. […]

FABP3 = target: T3, FABP3 (Homo sapiens, UniProt P05413); test: CW EPR spectra and spectral simulations of spin-probed fatty acids with FABP3; settings: for increase of intermediately bound component: FABPx/16-DSA 20/20 μM
T3 construct: purchased Sigma Aldrich
Experimental: as §1, §2, §3

[3] = 37 °C, 20 μM spin probe, EPR binding curve, read-out: KD,T,75′ (fit), apparent KD read at 75% totally bound
[4] = FABP5/16-DSA 100/100 μM/μM, 37 °C
[5] = changing the buffer from HEPES to TRIS, pH 7.5
[6] = lowering the pH from 7.5 to 6 in HEPES/NaCl
[7] = Hill fit of EPR binding curve, totally bound, 37 °C
[8] = Hill fit, totally bound (T), y = bound 5/16-DSA
[9] = read-out: KD,T,50′ (fit), apparent KD read at 50% totally bound, 37 °C, 20 μM spin probe, EPR binding curve
[10] = FABP3/16-DSA 100/100 μM/μM, 37 °C

T3 sequence (P05413 whole entry): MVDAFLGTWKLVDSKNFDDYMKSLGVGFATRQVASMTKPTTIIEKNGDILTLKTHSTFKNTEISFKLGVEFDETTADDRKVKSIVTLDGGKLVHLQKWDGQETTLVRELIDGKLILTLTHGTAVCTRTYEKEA
T1 sequence (Q01469 whole entry): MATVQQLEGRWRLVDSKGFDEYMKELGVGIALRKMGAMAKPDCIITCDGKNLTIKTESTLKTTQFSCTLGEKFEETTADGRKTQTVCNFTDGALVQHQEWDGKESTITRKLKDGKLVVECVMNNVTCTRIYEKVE
T2 sequence (P15090 whole entry): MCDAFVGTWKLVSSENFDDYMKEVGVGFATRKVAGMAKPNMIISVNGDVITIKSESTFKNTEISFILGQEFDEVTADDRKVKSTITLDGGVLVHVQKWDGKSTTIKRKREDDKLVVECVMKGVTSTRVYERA

## CCC1(CCCCCCCCCCCCCCC(=O)O)OCC(C)(C)N1[O] (stereo not drawn) [16-DSA, 16-DOXYL stearic acid]
FABP5 [1]; 37 °C, 20 μM FABP5, 20 μM spin probe, read-out: KD,T,20μM (calculated, totally bound)
  Kd: 2.14 ± 0.7 µM
FABP5 [1]; [3]
  Kd: 22 ± 0.2 µM
FABP5 [1]; 37 °C, 50 μM FABP5, 20 μM spin probe, read-out: KD,T,50μM (calculated, totally bound)
  Kd: 5.87 ± 1.21 µM
FABP5 [1]; 37 °C, 100 μM FABP5
  ΔGF−I,100μM (free to intermediately bound): -6.38 ± 0.072 kcal/mol
  ΔGF−S,100μM (free to strongly bound): -4.64 ± 0.024 kcal/mol
  ΔGF−T,100μM (free to totally bound): -7.17 ± 0.19 kcal/mol
  ΔGI−S,100μM (intermediately to strongly bound): 0.956 ± 0.024 kcal/mol
FABP5 [1]; 37 °C, 100 μM FABP5, 20 μM spin probe, read-out: KD,T,100μM (calculated, totally bound)
  Kd: 8.9 ± 0.34 µM
FABP5 [1]; 37 °C, EPR simulation
  aiso, component (1) free: 44.1 MHz
  aiso, component (2) intermediately bound: 37–42.3 MHz
  aiso, component (3) strongly bound: 37 MHz
  τc,iso, component (1) free: 0.05–0.07 ns
  τc,iso, component (2) intermediately bound: 5.7 ns
  τc,iso, component (3) strongly bound: 22.2 ns
FABP5 [1]; 37 °C, high FABP5 excess
  totally bound fraction: 93%
FABP5 [1]; FABP5/16-DSA 10/10 μM/μM, 37 °C
  intermediately bound proportion: 61.5%
FABP5 [1]; FABP5/16-DSA 20/20 μM/μM, 37 °C
  intermediately bound proportion: 72.2%
FABP5 [1]; FABP5/16-DSA 50/50 μM/μM, 37 °C
  intermediately bound proportion: 80.8%
FABP5 [1]; [4]
  intermediately bound proportion: 81%
  strongly bound component: 9.5%
FABP5 [1]; [5]
  increase of intermediately bound component: 6 to 8%
FABP5 [1]; [6]
  increase of intermediately bound component: 16 to 18%
FABP5 [1]; [7]
  Hill coefficient n: 0.852 ± 0.04 and < 1
FABP5 [1]; Hill fit, totally bound (T), x = c(FABP5)/c(5/16-DSA)
  Hill fit k: 0.315 ± 0.011
FABP5 [1]; [8]
  Hill fit Vmax: 98.288 ± 1.318
FABP5 [1]; [9]
  Kd: 7.6 ± 0.1 µM
FABP4; 37 °C, 20 μM FABP4, 20 μM spin probe, read-out: KD,T,20μM (calculated, totally bound)
  Kd: 10 ± 0.75 µM
FABP4; [3]
  Kd: 43.6 ± 0.4 µM
FABP4; 37 °C, 50 μM FABP4, 20 μM spin probe, read-out: KD,T,50μM (calculated, totally bound)
  Kd: 8.5 ± 4.1 µM
FABP4; 37 °C, 100 μM FABP4
  ΔGF−I,100μM (free to intermediately bound): -6.79 ± 0.22 kcal/mol
  ΔGF−T,100μM (free to totally bound): -6.79 ± 0.22 kcal/mol
FABP4; 37 °C, 100 μM FABP4, 20 μM spin probe, read-out: KD,T,100μM (calculated, totally bound)
  Kd: 16.7 ± 0.44 µM
FABP4; 37 °C, EPR simulation
  aiso, component (1) free: 44.1 MHz
  aiso, component (2) intermediately bound: 44.7–48.0 MHz
  τc,iso, component (1) free: 0.05–0.13 ns
  τc,iso, component (2) intermediately bound: 4.0–5.8 ns
  τc,iso, component (3) strongly bound: 22.2 ns
FABP4; [7]
  Hill coefficient n: 1.454 and > 1
FABP4; Hill fit, totally bound (T), x = c(FABP4)/c(5/16-DSA)
  Hill fit k: 0.797 ± 0.047
FABP4; [8]
  Hill fit Vmax: 92.29 ± 2.876
FABP4; [9]
  Kd: 17.8 ± 0.2 µM
FABP5 [2]
  bound 16-DSA: 72%
FABP3; 37 °C, 20 μM FABP3, 20 μM spin probe, read-out: KD,T,20μM (calculated, totally bound)
  Kd: 1.08 ± 0.55 µM
FABP3; [3]
  Kd: 18 ± 0.2 µM
FABP3; 37 °C, 50 μM FABP3, 20 μM spin probe, read-out: KD,T,50μM (calculated, totally bound)
  Kd: 0.81 µM
FABP3; 37 °C, 100 μM FABP3
  ΔGF−I,100μM (free to intermediately bound): -8.05 ± 0.598 kcal/mol
  ΔGF−S,100μM (free to strongly bound): -3.13 ± 0.024 kcal/mol
  ΔGF−T,100μM (free to totally bound): -8.96 ± 1.29 kcal/mol
  ΔGI−S,100μM (intermediately to strongly bound): 2.53 ± 0.048 kcal/mol
FABP3; 37 °C, 100 μM FABP3, 20 μM spin probe, read-out: KD,T,100μM (calculated, totally bound)
  Kd: 0.48 µM
FABP3; 37 °C, EPR simulation
  aiso, component (1) free: 44.1 MHz
  aiso, component (2) intermediately bound: 41.6–42.6 MHz
  aiso, component (3) strongly bound: 38.7 MHz
  τc,iso, component (1) free: 0.04–0.1 ns
  τc,iso, component (2) intermediately bound: 5.2–8.4 ns
  τc,iso, component (3) strongly bound: 19.1–22.2 ns
FABP3; FABP3/16-DSA 10/10 μM/μM, 37 °C
  intermediately bound proportion: 67.1%
FABP3; FABP3/16-DSA 20/20 μM/μM, 37 °C
  intermediately bound proportion: 72.6%
FABP3; FABP3/16-DSA 50/50 μM/μM, 37 °C
  intermediately bound proportion: 85.9%
FABP3; [10]
  intermediately bound proportion: 90.3%
  strongly bound component: 2.8%
FABP3; [5]
  increase of intermediately bound component: 6 to 8%
FABP3; [6]
  increase of intermediately bound component: 16 to 18%
FABP3; Hill fit, totally bound (T), x = c(FABP3)/c(5/16-DSA)
  Hill fit k: 0.535 ± 0.005
FABP3; [8]
  Hill fit Vmax: 100.399 ± 0.459
FABP3; [9]
  Kd: 10.6 ± 0.1 µM
